Laboratory results reported in patent US20260130933A1, “PHARMACEUTICAL COMPOSITION FOR PREVENTION OR TREATMENT OF NEPHROPATHY AND/OR DIABETES MELLITUS, COMPRISING ENAVOGLIFLOZIN” (DAEWOONG PHARMACEUTICAL CO., LTD., priority 2022, published 2026).

Test: Example 1: phase 3 trial, enavogliflozin 0.3 mg once a day as monotherapy vs placebo for 24 weeks in patients with type 2 diabetes (HbA1c, FPG, C-peptide, body weight, lipids, blood pressure, HOMA, UACR, UGCR, adiponectin, leptin, safety)
Type: in vivo, human
Details: for Change from baseline in HOMA-IR, ANCOVA LS mean difference / Change from baseline in HOMA-β, ANCOVA LS mean difference / Change from baseline in UACR, ANCOVA LS mean difference / Change from baseline in UGCR, ANCOVA LS mean difference / Change from baseline in adiponectin, ANCOVA LS mean difference / Change from baseline in leptin, ANCOVA LS mean difference: 0.3 mg vs placebo
Protocol: When a subject voluntarily gave written consent to participate in this clinical trial, a screening test was conducted. […] However, when the administration of a hypoglycemic agent was interrupted before the clinical trial Visit 1 (screening), at least an 8-week washout period, including the discontinuation period, was required, and during this period, a stable diet and exercise program was followed. Naïve patients were screened without a separate washout period, and the criteria for naïve patients were defined as patients who had not been administered hypoglycemic agents within 24 weeks prior to the date of obtaining written consent. […] In addition, they were instructed to maintain regular exercise and dietary control starting from 8 weeks prior to screening without changing their daily life patterns during the clinical trial period.

[1] = Week 18, LOCF, full analysis set, 0.3 mg
[2] = Week 18, LOCF, full analysis set
[3] = Week 24, LOCF, full analysis set, 0.3 mg
[4] = Week 24, LOCF, full analysis set

With `OC[C@H]1O[C@@H](c2cc(Cc3ccc(C4CC4)cc3)c(Cl)c3c2CCO3)[C@H](O)[C@@H](O)[C@@H]1O` [Enavogliflozin, (2S,3R,4R,5S,6R)-2-(7-chloro-6 (4-cyclopropylbenzyl)-2,3-dihydrobenzofuran-4-yl)-6-(hydroxymethyl)tetrahydro-2H-pyran-3,4,5-triol] the “Change from baseline in HOMA-IR, Median” value [1] was −1.10, the “Change from baseline in HOMA-β, ANCOVA LS mean (SE)” value [1] was 28.64 and the “Change from baseline in HOMA-β, Mean (SD)” value [1] was 23.65. The “Change from baseline in HOMA-β, Median” value [1] was 5.95, the “Change from baseline in UACR, ANCOVA LS mean (SE)” value [1] was -5.53 g/kg and the “Change from baseline in UACR, Mean (SD)” value [1] was -8720 mg/kg. The “Change from baseline in UACR, Median” value [1] was -0.75 g/kg, the “Change from baseline in UGCR, ANCOVA LS mean (SE)” value [1] was 51.70 mg/mg and the “Change from baseline in UGCR, Mean (SD)” value [1] was 50.96 mg/mg. The “Change from baseline in UGCR, Median” value [1] was 54.29 mg/mg, the “Change from baseline in adiponectin, ANCOVA LS mean (SE)” value [1] was 0.97 µg/mL and the “Change from baseline in adiponectin, Mean (SD)” value [1] was 0.83 µg/mL. The “Change from baseline in adiponectin, Median” value [1] was 0.61 µg/mL, the “Change from baseline in leptin, ANCOVA LS mean (SE)” value [1] was -2.70 ng/mL and the “Change from baseline in leptin, Mean (SD)” value [1] was -2.20 ng/mL. For the same compound, the “Change from baseline in leptin, Median” value [1] was -1.21 ng/mL, the “HOMA-IR, Mean (SD)” value [1] was 1.99 and the “HOMA-IR, Median” value [1] was 1.51. For the same compound, the “HOMA-β, Mean (SD)” value [1] was 70.05, the “HOMA-β, Median” value [1] was 43.85 and the “Leptin, Mean (SD)” value [1] was 8.96 ng/mL. For the same compound, the “Leptin, Median” value [1] was 6.05 ng/mL, the “UACR, Mean (SD)” value [1] was 19480 mg/kg and the “UACR, Median” value [1] was 10.50 g/kg. The “UGCR, Mean (SD)” value [1] was 52.38 mg/mg, the “UGCR, Median” value [1] was 54.51 mg/mg and the “Change from baseline in HOMA-IR, ANCOVA LS mean difference” value [2] was −1.49. For the same compound, the “Change from baseline in HOMA-β, ANCOVA LS mean difference” value [2] was 22.40, the “Change from baseline in UACR, ANCOVA LS mean difference” value [2] was -13.39 g/kg and the “Change from baseline in UGCR, ANCOVA LS mean difference” value [2] was 47.66 mg/mg. For the same compound, the “Change from baseline in adiponectin, ANCOVA LS mean difference” value [2] was 1.04 µg/mL, the “Change from baseline in leptin, ANCOVA LS mean difference” value [2] was -2.36 ng/mL and the “Adiponectin, Mean (SD)” value [3] was 9.07 µg/mL. For the same compound, the “Adiponectin, Median” value [3] was 7.57 µg/mL, the “Change from baseline in HOMA-IR, ANCOVA LS mean (SE)” value [3] was −1.57 and the “Change from baseline in HOMA-IR, Mean (SD)” value [3] was −1.52. The “Change from baseline in HOMA-IR, Median” value [3] was −0.99, the “Change from baseline in HOMA-β, ANCOVA LS mean (SE)” value [3] was 7.97 and the “Change from baseline in HOMA-β, Mean (SD)” value [3] was 8.24. The “Change from baseline in HOMA-β, Median” value [3] was 6.10, the “Change from baseline in UACR, ANCOVA LS mean (SE)” value [3] was -4.31 g/kg and the “Change from baseline in UACR, Mean (SD)” value [3] was -6750 mg/kg. The “Change from baseline in UACR, Median” value [3] was -0.15 g/kg, the “Change from baseline in UGCR, ANCOVA LS mean (SE)” value [3] was 49.76 mg/mg and the “Change from baseline in UGCR, Mean (SD)” value [3] was 48.97 mg/mg. For the same compound, the “Change from baseline in UGCR, Median” value [3] was 50.09 mg/mg, the “Change from baseline in adiponectin, ANCOVA LS mean (SE)” value [3] was 1.25 µg/mL and the “Change from baseline in adiponectin, Mean (SD)” value [3] was 1.28 µg/mL. The “Change from baseline in adiponectin, Median” value [3] was 1.08 µg/mL, the “Change from baseline in leptin, ANCOVA LS mean (SE)” value [3] was -2.36 ng/mL and the “Change from baseline in leptin, Mean (SD)” value [3] was -2.07 ng/mL. The “Change from baseline in leptin, Median” value [3] was -0.84 ng/mL, the “HOMA-IR, Mean (SD)” value [3] was 1.94 and the “HOMA-IR, Median” value [3] was 1.58. For the same compound, the “HOMA-β, Mean (SD)” value [3] was 54.64, the “HOMA-β, Median” value [3] was 46.65 and the “Leptin, Mean (SD)” value [3] was 9.09 ng/mL. The “Leptin, Median” value [3] was 6.89 ng/mL, the “UACR, Mean (SD)” value [3] was 21440 mg/kg and the “UACR, Median” value [3] was 9.00 g/kg. The “UGCR, Mean (SD)” value [3] was 50.40 mg/mg, the “UGCR, Median” value [3] was 50.80 mg/mg and the “Change from baseline in HOMA-IR, ANCOVA LS mean difference” value [4] was −1.94. For the same compound, the “Change from baseline in HOMA-β, ANCOVA LS mean difference” value [4] was 5.88, the “Change from baseline in UACR, ANCOVA LS mean difference” value [4] was -13.92 g/kg and the “Change from baseline in UGCR, ANCOVA LS mean difference” value [4] was 47.36 mg/mg. For the same compound, the “Change from baseline in adiponectin, ANCOVA LS mean difference” value [4] was 0.98 µg/mL, the “Change from baseline in leptin, ANCOVA LS mean difference” value [4] was -2.99 ng/mL and the “Body weight, Mean” value (week 6) was 66.81 kg. The “Diastolic blood pressure, Mean” value (week 6) was 73.81 mmHg, the “FPG change from baseline, LS mean (SE)” value (week 6) was −27.78(2.47) mg/dL and the “FPG change from baseline, Mean (SD)” value (week 6) was −25.86(20.19) mg/dL. The “FPG, Mean (SD)” value (week 6) was 115.19(14.55) mg/dL, the “HDL-C change from baseline, LS mean” value (week 6) was 2.40 mg/dL and the “HDL-C change from baseline, Mean” value (week 6) was 2.07 mg/dL. The “HDL-C, Mean” value (week 6) was 53.79 mg/dL, the “HbA1c change from baseline, LS mean (SE)” value (week 6) was −0.67(0.05) % p and the “HbA1c change from baseline, Mean (SD)” value (week 6) was −0.63(0.39) % p. For the same compound, the “HbA1c, Mean (SD)” value (week 6) was 7.01(0.59) %, the “LDL-C change from baseline, LS mean” value (week 6) was 1.23 mg/dL and the “LDL-C change from baseline, Mean” value (week 6) was 1.55 mg/dL. The “LDL-C, Mean” value (week 6) was 96.18 mg/dL, the “Subjects achieving HbA1c target of <6.5%” value (week 6) was 12(14.81) % and the “Subjects achieving HbA1c target of <7%” value (week 6) was 40(49.38) %. For the same compound, the “Subjects achieving therapeutic glycemic response (HbA1c change >0.5% or HbA1c<7%)” value (week 6) was 61(75.31) %, the “Systolic blood pressure, Mean” value (week 6) was 123.32 mmHg and the “body weight change from baseline, LS mean” value (week 6) was -2.03 kg. For the same compound, the “body weight change from baseline, Mean” value (week 6) was -2.05 kg, the “diastolic blood pressure change from baseline, LS mean” value (week 6) was −2.99 mmHg and the “diastolic blood pressure change from baseline, Mean” value (week 6) was −2.65 mmHg.
